Earlier results, collected in article PMC4761099 (British Journal of Pharmacology, 2016).

Tested on: Ob/ob mice
Details: leptin mutant mice, acute setting; ref Kerr et al., 2011

## GIP(8-42): literature GIP fragment (Kerr et al., 2011) (SDYSIAMDKIHQQDFVNWLLAQKGKKNDWKHNITQ; Gastric inhibitory polypeptide; UniProt P09681 59-93, looked up, fragment)
  antagonism of GIP(1–42) in vivo, in words: decreased insulin secretion and increased plasma glucose
